Assay results taken from patent US20100160369A1, “S1P1 Agonists and Methods of Making And Using” (EXELIXIS, INC., priority 2008, published 2010).

Assays:
hS1P1R (hEdg1) = target: T1, hS1P1R (hEdg1) (Homo sapiens, UniProt P21453); experiment: hS1P1R GTPγS Binding Assay (Assay 3a); format: biochemical
T1 construct: purchased Lonza
Procedure: The hS1P1R GTPγS binding assay was carried out at room temperature in 96 well non-binding surface assay plates. The reaction in each well contained 4 μg hS1P1R (hEdg1) membrane protein (Lonza), 30 μM GDP, 0.1 nM [^35S]GTPγS, 0.25% fatty acid free BSA, and serially diluted hS1P1R agonist compound in 200 μL assay buffer (25 mM Tris-HCl PH 7.9, 100 mM NaCl, 3 mM MgCl2, and 0.2 mM EGTA). After one hour of incubation, 0.9 mg of WGA (Wheat Germ Agglutinin) SPA beads in 50 μL of assay buffer was added to each well. The SPA beads were spun down after an additional one hour incubation. The radioactivity of the bound GTPγS was counted by reading the assay plate using a MicroBeta.
(§1) Assay 1 is the CNG cAMP Assay as described in Biological Example 1. Assay 2a and 2b are the Tango™ β-arrestin Recruitment Assay in HEK293 and U2OS cells, respectively, as described in Biological Example 2. Assay 3a is the hS1P1R GTPγS Binding Assay as described in Biological Example 3. Assay 3b is the GTP-Eu Binding Assay as described in Biological Example 3. EC50's were measured unless otherwise noted. […] In the table, “nt” means the Compound was not tested and “no” means the compound was tested but had no measurable activity under the assay conditions employed.

S1P1 [1] = target: T2, S1P1 (Homo sapiens, UniProt P21453); experiment: DELFIA GTP-Eu Binding Assay (Assay 3b); format: biochemical; set-up: purchased Lonza; host or cells: CHO cell membranes
Procedure: The DELFIA GTP-Eu binding assay (PerkinElmer) is a time-resolved fluorometric assay based on GDP-GTP exchange. CHO cell membranes (Lonza) expressing human S1P1 were incubated in 96-well filter plates (Pall, East Hills, N.Y.) in a final volume of 100 μL/well buffer containing 40 μg/mL membrane, 50 mM HEPES, 2 μM GDP, 10 mM MgCl2, 100 mM NaCl, 500 μg/mL Saponin and test compound. Test compounds were tested at maximum concentrations of 10 μM. Compounds were diluted (10 concentration points, 3-fold each) and added to the assay plate at a 1% final DMSO concentration. For each compound, there were duplicate assay plates and each assay plate had duplicate wells per concentration point. The plates were incubated for 30 min at room temperature on a plate shaker at low speed. GTP-Eu was added to each well (10 μL, 10 nM final concentration) and the plate was incubated for an additional 30 min with slow shaking The wells were washed with ice cold GTP washing buffer (3×150 μL) using a vacuum manifold and the assay plates read in an EnVision plate reader (PerkinElmer) at an excitation wavelength of 340 nm and an emission wavelength of 615 nm. To determine agonist activity, percent activity was calculated as [(test compound−background)/(positive control−background)*100], where background is the fluorescence in absence of compound and the positive control is the fluorescence from membranes incubated with 1 μM S1P (Avanti). The percent activities were plotted against compound concentration to determine IC50 or EC50 using XLFit (IDBS).
as §1
Target sequence in this assay (P21453 whole entry): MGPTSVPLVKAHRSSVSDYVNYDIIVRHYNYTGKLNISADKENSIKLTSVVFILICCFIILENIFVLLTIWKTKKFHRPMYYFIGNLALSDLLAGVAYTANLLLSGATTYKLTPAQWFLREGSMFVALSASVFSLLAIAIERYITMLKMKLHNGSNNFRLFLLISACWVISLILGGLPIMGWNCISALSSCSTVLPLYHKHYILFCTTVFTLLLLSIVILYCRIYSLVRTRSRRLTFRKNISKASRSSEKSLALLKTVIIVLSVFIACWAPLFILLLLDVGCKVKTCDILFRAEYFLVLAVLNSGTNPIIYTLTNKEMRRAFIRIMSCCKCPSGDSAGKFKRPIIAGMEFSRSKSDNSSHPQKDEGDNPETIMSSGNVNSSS

S1P1 [2] = target: T2, S1P1; experiment: CNG cAMP Assay (Assay 1); format: cell-based; set-up: host or cells: HEK293 cells expressing the CNG channel; settings: read-out: Assay 1 EC50
How it was run: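 HEK293 cells expressing CNG channel and S1P1, membrane-potential dye loaded; compounds (top 10 μM, 10-point 3-fold, 1.8% DMSO) added with 25 μM Ro 20-1724, 500 nM NECA and 10 nM S1P for 90 min. T90/T0 fluorescence (Ex 350/Em 590 nm) normalised to NECA-alone vs DMSO; EC50 fitted.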
Target sequence in this assay (P21453 whole entry): as above

S1P1 [3] = target: T2, S1P1; experiment: Tango β-arrestin Recruitment Assay in HEK293 cells (Assay 2a); format: cell-based; set-up: linker with TEV protease (N1a) cleavage site (C); host or cells: HEK293, transiently transfected; settings: Tango β-arrestin Recruitment Assay, read-out: Assay 2a EC50
How it was run: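 HEK293 cells transiently expressing S1P1 (TEV-cleavable tTA fusion) with β-arrestin2–TEV; compounds up to 10 μM, 10-point 3-fold, 1% DMSO, 30 min then 16–18 h at 37 °C. Luciferase luminescence normalised to 5 μM S1P as 100% and DMSO as background; EC50 from percent-activity curves.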
Target sequence in this assay (P21453 whole entry): as above
Target sequence in this assay (P32121 whole entry partner): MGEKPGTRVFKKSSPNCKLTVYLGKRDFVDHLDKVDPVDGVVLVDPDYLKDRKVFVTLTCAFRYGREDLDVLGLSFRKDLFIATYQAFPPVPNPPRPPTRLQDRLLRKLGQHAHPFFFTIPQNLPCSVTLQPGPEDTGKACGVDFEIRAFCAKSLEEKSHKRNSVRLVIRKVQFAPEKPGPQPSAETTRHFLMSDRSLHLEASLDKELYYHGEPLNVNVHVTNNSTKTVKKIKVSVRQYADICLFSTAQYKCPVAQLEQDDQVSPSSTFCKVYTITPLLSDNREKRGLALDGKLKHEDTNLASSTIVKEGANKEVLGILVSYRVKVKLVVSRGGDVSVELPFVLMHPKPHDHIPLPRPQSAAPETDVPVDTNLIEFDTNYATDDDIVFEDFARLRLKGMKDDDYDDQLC

S1P1 [4] = target: T2, S1P1; experiment: Tango β-arrestin Recruitment Assay in U2OS cells (Assay 2b); format: cell-based; set-up: linker with TEV protease (N1a) cleavage site (C); settings: Tango β-arrestin Recruitment Assay, read-out: Assay 2b EC50
How it was run: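 U2OS cells expressing S1P1 and reporter, serum-starved 48 h, treated with compound (10-point 3-fold series, top 1 μM, 1% DMSO) overnight at 37 °C; β-lactamase substrate added 2 h at room temperature. F460/F530 ratio normalised to 1 μM S1P (100%) and DMSO; EC50 from concentration-response.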
Target sequence in this assay (P21453 whole entry): as the sequence (P21453 whole entry) above
Target sequence in this assay (P32121 whole entry partner): as the sequence (P32121 whole entry partner) above

[5] = footnote 1: Relative EC50 was measured, read-out: Assay 3b Relative EC50

T1 sequence (P21453 whole entry): as the sequence (P21453 whole entry) above

Row | Structure (SMILES) | EC50 (hS1P1R (hEdg1)) [µM] | EC50 (S1P1 [1]; relative EC50 was measured (footnote 1), read-out: Assay 3b Relative EC50) [µM] | EC50 (S1P1 [2]) [µM] | EC50 (S1P1 [3]) [µM] | EC50 (S1P1 [1]; read-out: Assay 3b EC50) [µM] | EC50 (S1P1 [1]; [5]) [µM] | EC50 (S1P1 [4]) [µM]
1 | CC(C)Cc1cc(Cl)c2nc(-c3nc(-c4cc(F)c(CCC(=O)O)cc4Cl)no3)cn2c1 [Example 149, 3-(5-chloro-4-{5-[8-chloro-6-(2-methylpropyl)imidazo[1,2-a]pyridin-2-yl]-1,2,4-oxadiazol-3-yl}-2-fluorophenyl)propanoic acid] |  |  | ≤ 0.1 | ≤ 0.1 |  | ≤ 0.1 | 
2 | Cc1cc(C(C)CC(=O)O)ccc1-c1noc(-c2cn3cc(C(F)(F)F)cc(Br)c3n2)n1 (stereo not drawn) [Example 153, 3-(4-{5-[8-bromo-6-(trifluoromethyl)imidazo[1,2-a]pyridin-2-yl]-1,2,4-oxadiazol-3-yl}-3-methylphenyl)butanoic acid] |  |  | ≤ 0.1 | 0.1 to 0.5 |  | 0.5 to 1 | 
3 | Cc1cc(-c2noc(-c3cn4cc(C(F)(F)F)cc(Cl)c4n3)n2)cc(C)c1OCC(O)CO (stereo not drawn) [Example 161, 3-[(4-{5-[8-chloro-6-(trifluoromethyl)imidazo[1,2-a]pyridin-2-yl]-1,2,4-oxadiazol-3-yl}-2,6-dimethylphenyl)oxy]propane-1,2-diol] | ≤ 0.1 |  | ≤ 0.1 | ≤ 0.1 | 0.1 to 0.5 |  | 
4 | CC(CC(=O)O)c1ccc(-c2noc(-c3cn4cc(C(F)(F)F)cc(Cl)c4n3)n2)c(Cl)c1 (stereo not drawn) [Example 172, 3-(3-chloro-4-{5-[8-chloro-6-(trifluoromethyl)imidazo[1,2-a]pyridin-2-yl]-1,2,4-oxadiazol-3-yl}phenyl)butanoic acid] |  |  | ≤ 0.1 | 0.1 to 0.5 | 1 to 5 |  | 
5 | NCC(O)COc1cc(Cl)c(-c2noc(-c3cn4cc(C(F)(F)F)cc(Cl)c4n3)n2)cc1Cl (stereo not drawn) [Example 226, 1-amino-3-[(2,5-dichloro-4-{5-[8-chloro-6-(trifluoromethyl)imidazo[1,2-a]pyridin-2-yl]-1,2,4-oxadiazol-3-yl}phenyl)oxy]propan-2-ol] |  |  | ≤ 0.1 | ≤ 0.1 | 0.5 to 1 |  | 
6 | O=C(O)CCc1cc(Cl)c(-c2nc(-c3cn4cc(C(F)(F)F)cc(Br)c4n3)no2)cc1F [Example 238, 3-(4-{3-[8-bromo-6-(trifluoromethyl)imidazo[1,2-a]pyridin-2-yl]-1,2,4-oxadiazol-5-yl}-5-chloro-2-fluorophenyl)propanoic acid] |  |  | ≤ 0.1 | ≤ 0.1 | 0.1 to 0.5 |  | 
7 | CS(=O)(=O)Nc1ccc(-c2nnc(-c3cn4cc(C(F)(F)F)cc(Cl)c4n3)s2)c(Cl)c1 [Example 239, N-(3-chloro-4-{5-[8-chloro-6-(trifluoromethyl)imidazo[1,2-a]pyridin-2-yl]-1,3,4-thiadiazol-2-yl}phenyl)methanesulfonamide] |  |  | ≤ 0.1 | ≤ 0.1 | 0.1 to 0.5 |  | ≤ 0.1
8 | NCCOc1ccc(-c2nnc(-c3cn4cc(C(F)(F)F)cc(Cl)c4n3)s2)c(Cl)c1 [Example 244, 2-[(3-chloro-4-{5-[8-chloro-6-(trifluoromethyl)imidazo[1,2-a]pyridin-2-yl]-1,3,4-thiadiazol-2-yl}phenyl)oxy]ethanamine] | 0.1 to 0.5 |  | ≤ 0.1 | 0.1 to 0.5 | 0.5 to 1 |  | 
9 | CC(CO)Oc1ccc(-c2noc(-c3cn4cc(C(F)(F)F)cc(Cl)c4n3)n2)c(Cl)c1 (stereo not drawn) [Example 256, 2-[(3-chloro-4-{5-[8-chloro-6-(trifluoromethyl)imidazo[1,2-a]pyridin-2-yl]-1,2,4-oxadiazol-3-yl}phenyl)oxy]propan-1-ol] | 0.5 to 1 |  | ≤ 0.1 | ≤ 0.1 | 0.1 to 0.5 |  | 
10 | NCCOc1ccc(-c2noc(-c3cn4cc(C(F)(F)F)cc(Cl)c4n3)n2)c(Cl)c1 [Example 257, 2-[(3-chloro-4-{5-[8-chloro-6-(trifluoromethyl)imidazo[1,2-a]pyridin-2-yl]-1,2,4-oxadiazol-3-yl}phenyl)oxy]ethanamine] |  |  | ≤ 0.1 | ≤ 0.1 | 0.1 to 0.5 |  | 0.1 to 0.5
11 | CC(CO)Oc1cc(Cl)c(-c2noc(-c3cn4cc(C(F)(F)F)cc(Cl)c4n3)n2)cc1F (stereo not drawn) [Example 259, 2-[(5-chloro-4-{5-[8-chloro-6-(trifluoromethyl)imidazo[1,2-a]pyridin-2-yl]-1,2,4-oxadiazol-3-yl}-2-fluorophenyl)oxy]propan-1-ol] | ≤ 0.1 |  | ≤ 0.1 | ≤ 0.1 | 0.1 to 0.5 |  | 

Continued, values first:

Row | EC50 (hS1P1R (hEdg1)) [µM] | EC50 (S1P1 [1]; relative EC50 was measured (footnote 1), read-out: Assay 3b Relative EC50) [µM] | EC50 (S1P1 [2]) [µM] | EC50 (S1P1 [3]) [µM] | EC50 (S1P1 [1]; read-out: Assay 3b EC50) [µM] | EC50 (S1P1 [1]; [5]) [µM] | EC50 (S1P1 [4]) [µM] | Structure (SMILES)
12 | 1 to 5 | 0.1 to 0.5 | ≤ 0.1 | ≤ 0.1 |  |  |  | O=C(O)CCc1ccc(-c2noc(-c3cn4cc(C(F)(F)F)cc(Cl)c4n3)n2)cc1Cl [Entry 7]
13 | 0.5 to 1 |  | ≤ 0.1 | ≤ 0.1 | 0.1 to 0.5 |  |  | Cc1cc(C2CC2C(=O)O)c(F)cc1-c1noc(-c2cn3cc(C(F)(F)F)cc(Cl)c3n2)n1 (stereo not drawn) [Example 79, 2-(4-{5-[8-chloro-6-(trifluoromethyl)imidazo[1,2-a]pyridin-2-yl]-1,2,4-oxadiazol-3-yl}-2-fluoro-5-methylphenyl)cyclopropanecarboxylic acid]
14 | ≤ 0.1 |  | ≤ 0.1 | ≤ 0.1 | 0.1 to 0.5 |  |  | C[C@@H](CO)Oc1cc(Cl)c(-c2noc(-c3cn4cc(C(F)(F)F)cc(Cl)c4n3)n2)cc1F [Example 96, (2S)-2-[(5-chloro-4-{5-[8-chloro-6-(trifluoromethyl)imidazo[1,2-a]pyridin-2-yl]-1,2,4-oxadiazol-3-yl}-2-fluorophenyl)oxy]propan-1-ol]
15 |  |  | ≤ 0.1 | 0.1 to 0.5 | 1 to 5 |  |  | O=C(O)CCNCc1ccc(-c2noc(-c3cn4cc(C(F)(F)F)cc(Br)c4n3)n2)c(Cl)c1 [Example 131, N-[(4-{5-[8-bromo-6-(trifluoromethyl)imidazo[1,2-a]pyridin-2-yl]-1,2,4-oxadiazol-3-yl}-3-chlorophenyl)methyl]-beta-alanine]
16 |  |  | ≤ 0.1 | 0.1 to 0.5 | 1 to 5 |  |  | O=C(O)C1CN(Cc2ccc(-c3noc(-c4cn5cc(C(F)(F)F)cc(Br)c5n4)n3)c(Cl)c2)C1 [Example 132, 1-[(4-{5-[8-bromo-6-(trifluoromethyl)imidazo[1,2-a]pyridin-2-yl]-1,2,4-oxadiazol-3-yl}-3-chlorophenyl)methyl]azetidine-3-carboxylic acid]
17 |  |  | ≤ 0.1 | ≤ 0.1 |  | 0.1 to 0.5 |  | O=C(O)CC(O)c1ccc(-c2noc(-c3cn4cc(C(F)(F)F)cc(Cl)c4n3)n2)c(Cl)c1 (stereo not drawn) [Example 139, 3-(3-chloro-4-{5-[8-chloro-6-(trifluoromethyl)imidazo[1,2-a]pyridin-2-yl]-1,2,4-oxadiazol-3-yl}phenyl)-3-hydroxypropanoic acid]
